Among the data in a melting point compilation (Tetko et al.; mined from patent text by program, amines drawn as free bases though some values may be those of a salt) are melting point values, retold here.

A word on the melting point: it is the temperature, or range, at which the solid turns liquid. In turn, `Nc1ccc(C(O)C(COc2ccccc2)N2CCC(Cc3ccccc3)CC2)cc1` (stereo not given) came in with a melting point of 146 to 147 °C. For `Oc1c(Cc2c[nH]cn2)cccc1C1=NCCN1` the value was 261 °C.

In turn, `O=C(O)c1cc(F)c(N2CCCC2)nc1NC1CC1` showed a melting point of 64 to 66 °C. The compound `Cc1cccc(NC(=O)NCC(=O)N(CC(=O)Nc2ccc3c(c2)CCC3)c2ccccc2)c1` displayed a melting point of 210 °C. Then `COc1ccc(C2(C#N)CCC(=O)CC2)cc1`, with 77.5 to 79.5 °C; and `CC(=O)OC(C)OC1=C(C(=O)Nc2cccc(C)n2)N(C)S(=O)(=O)c2ccccc21` (stereo not given), with 190 to 191 °C; and `Cc1cc(C(=O)C(C)N2CCC(O)(c3ccccc3)CC2)ccc1OCc1ccccc1` (stereo not given), with 98 to 99 °C. For `COc1ccc2[nH]cc(-c3cc4c(OC)ncnc4[nH]3)c2c1` the value was > 260 °C; for `CC(=O)OCCS(=O)(=O)C(F)(F)C(O)(Cn1cncn1)c1ccc(F)cc1F` (stereo not given), 77 to 80 °C; for `CC(=O)N1[C@@H](c2ccc(F)cc2)SC(C)(C)[C@@H]1C(=O)O`, 144 to 146 °C. For `CC(C)c1ccc(OC(C)(Cc2ccc(OCCNC(=O)c3ccc(-c4ccccn4)cc3)cc2)C(=O)O)cc1` (stereo not given) the value was 141 to 143 °C. In turn, `Nc1ccc(Sc2cccc3nccn23)cc1` returned a melting point of 167 to 168 °C. For `O=C1CC2c3ccccc3CCN2C2CCCCC12` (stereo not given) the value was 112 to 140 °C; for `Nc1cc(-c2c(-c3ccc(F)cc3)ncn2CCCN2CCOCC2)ccn1`, 186 to 187 °C.

For `CC(=O)NCCOc1ccc([N+](=O)[O-])cc1O`, the melting point was determined as 165 °C.

`CCCNS(=O)(=O)c1cc(C)c2cc(C(C)C)ccc(C)c1-2` came in with a melting point of 60 to 62 °C. Then `O=C(OCC1CCN(CC2CSc3ccc(F)cc3C2)CC1)c1ccc(F)cc1` (stereo not given), with 113 to 114 °C. Consider `Cc1c(-c2ccccc2)oc2c(OCCCl)cccc2c1=O`, for which the melting point was in the range of 141 to 142 °C. Then `N#Cc1ccc2c([N+](=O)[O-])cc3c(c2c1)C(CCl)CN3` (stereo not given), with 231 to 234 °C. Then `COC(=O)COc1cc(Cl)c(C(=O)CBr)cc1Cl`, with 89 to 90 °C; and `CC(=O)c1ccccc1OCc1cccc(S(N)(=O)=O)c1`, with 124 to 125 °C; and `Cc1ccc2c(C3CCN(CCN4CCN(C(C)C)C4=O)CC3)cn(-c3ccc(F)cc3)c2c1`, with 124 °C.

Take `CC(C)c1cc(C(C)C)c(NC(=O)CN2CCN(CCCSc3nc4ccccc4s3)CC2)c(C(C)C)c1`: the melting point lay within 107 to 108 °C. For `COc1ccc(N(Cc2cccnc2)S(C)(=O)=O)c(OC)c1` the value was 117 to 119 °C; for `O=C1NCCN1Cc1cccc2ccccc12`, 121 to 125 °C; for `Cc1cccc(-n2c(-c3cc(-c4ccncc4)c(N4CCOCC4)s3)nc3ccccc3c2=O)c1`, 230 to 232 °C. For `CS(=O)(=O)OCCC1(c2ccccc2)C=CCC=C1` the value was 64 to 65 °C; for `O=C(O)C(CNC(=O)C1Cc2ccccc2N1S(=O)(=O)c1ccc(-c2cccc(C(F)(F)F)c2)cc1)Cc1ccccc1` (stereo not given), 85 to 90 °C; for `COc1cccc2c(=O)nc(-c3ccccn3)sc12`, 191 °C. In turn, `O=C1C=CC(=O)C(C(=O)CCn2sc(Cl)cc2=O)=C1` displayed a melting point of 181 to 183 °C.

Take `CCc1c(NC(=O)OC(C)(C)C)cccc1NC(=O)c1ccc(Br)cc1`: the melting point was 181 to 183 °C. For `CCCN1CC(C(=O)OC)CC2c3cccc4[nH]cc(c34)CC21` (stereo not given) the value was 202 to 204 °C; for `COc1c2occc2cc2c(C)cc(=O)oc12`, 167 to 168 °C; for `CCSc1cn(C)cc(-c2cccc(C(F)(F)F)c2)c1=S`, 136 to 138 °C. The compound `c1cc2c(Nc3ccc4[nH]ccc4c3)ncnc2cn1` had a melting point of 265 °C. Then `CCCc1nc(N)c(C#N)[nH]1`, with 117 to 119 °C; and `CC(C)(S)CN1CCN(c2ccc(C#N)cc2)CC1`, with 92 to 94 °C.

Compound `Cc1c(Cc2cccnc2)sc2cc(C(=O)O)ccc12` came in with a melting point of 248 to 249 °C.

The compound `CCc1cc2c(cc1C#Cc1ccc(C)cc1)C(C)(C)CCC2(C)C` came in with a melting point of 72 to 73 °C.

Compound `COc1ccc2c(c1)c1c3c(c(-c4ccccc4Cl)cc1n2CCC(N)=O)C(=O)NC3=O` gave a melting point of 283 to 286 °C.

As to `CCC(O)c1ncn2c1CN(C)C(=O)c1ccccc1-2` (stereo not given), the melting point lay within 145 to 147 °C.

On to `CCCc1c(OCCCOc2ccc(-c3c[nH]c(SCc4ccccc4)n3)c(OC)c2CCC)ccc2c1OC(C(=O)O)CC2` (stereo not given), for which the melting point was 92 to 97 °C. On to `CCC(Oc1ccc(C)c(C)c1)C(=O)OC1CC(O)C=C2C=CC(C)C(CCC3CC(O)CC(=O)O3)C21` (mixture of isomers), for which the melting point was 137 to 139 °C.

In the case of `N#Cc1cc(NC(=O)c2cccn2-c2ccc(F)cc2)ccc1N1CCCCC1`, the melting point is 158 to 159 °C. For the compound `O=C(CC(=O)C(F)(F)Cl)c1ccc(Cl)cc1`, the melting point lay within 50 to 51 °C. Then `Cc1nc(-c2nc(-c3ccc(Cl)cc3)c(CCCCCO)o2)c[nH]1`, with 94 to 95 °C; and `CCOC(=O)c1csc(-c2cccs2)n1`, with 72 to 73 °C. In turn, `Cn1cc(-c2cc3nccnc3[nH]2)c2ccccc21` yielded a melting point of 264 to 266 °C.

In the case of `CC(C)NCC1(O)COc2ccc(O)cc2OC1` (stereo not given), the melting point was 108 to 110 °C. `O=C(Nc1ccc2nc(CN3CCCCC3)ccc2c1)c1ccc(-c2ccc(F)cc2F)nc1` gave a melting point of 182 to 183 °C. For `O=Cc1cn(Cc2ccc(OCc3coc(-c4ccccc4)n3)cc2)nc1-c1cccs1` the value was 153 to 154 °C. `O=C1CC(CO)N1C(c1ccccc1)c1ccccc1` (stereo not given) registered a melting point of 101 to 102 °C.

The compound `COCCOc1ccc2c(Cl)c(C#N)cnc2c1` had a melting point of 143 to 145 °C. Then `CCN(CC)S(=O)(=O)c1cc(Br)c(N)c(Br)c1`, with 186 to 187 °C; and `CCC(=O)c1cn(-c2c(Cl)cc(C(F)(F)F)cc2Cl)nc1C#N`, with 143 °C; and `CCCN(CCC)S(=O)(=O)c1cccc(C2(O)CCC(=O)N2C)c1` (stereo not given), with 58 to 60 °C. For `CCCCNC(=O)NS(=O)(=O)c1c(C(=O)OCC)cnn1-c1ccccn1` the value was 180 to 181 °C. For `CCCCc1nc(SC)c(C(=O)OCC)n1Cc1cccc(-c2ccc(S(=O)(=O)NC#N)cc2)c1` the value was 120 °C. As for `CCC(Oc1ccc(C(C)(C)CC)cc1C(C)(C)CC)C(=O)Nc1ccc(Cl)c(NC(=O)C(C(=O)C(C)(C)C)N2C(=O)NC(=C(C)C)C2=O)c1` (stereo not given), the melting point lay within 178 to 179 °C. Then `Cc1c(-c2ccc(O)cc2)sc(C=O)c1-c1ccc(O)cc1`, with 223 to 225 °C. Consider `COC(=O)c1ccc(CCC(C=Cc2ccc(O)c(OC)c2)=NO)o1`, for which the melting point is 110 to 125 °C. Then `O=C(CCC1c2ccccc2-c2ccccc21)N[C@@H](Cc1ccccc1)C(=O)O`, with 194 to 195 °C; and `O=C(O)COc1cc(C(=O)O)nc2ccc(Cl)cc12`, with 260 °C; and `CC(=O)N1CCN(NC(=O)c2ccc(F)cc2)CC1`, with 209 to 210 °C. Then `CCOC(=O)c1cccc(-n2cccc2)c1`, with 62 to 64 °C; and `CC(C)(C)OC(=O)C(C)(C)N1COC(CCl)=C(c2ccccc2)C1=O`, with 128 to 129 °C. For the compound `CC1CN2N=C(c3cccc(C(F)(F)F)c3)C=CC2=N1` (stereo not given), the melting point lay in the range of 86 to 90 °C.

As for `COc1cccc(Cc2nnc(NCCSCc3nc[nH]c3C)[nH]c2=O)c1`, the melting point was in the range of 203 to 204 °C. Then `N#CCOc1nsc2ccc([N+](=O)[O-])cc12`, with 123 to 124 °C. For `CN(CCCC(=O)Nc1ccc2[nH]ncc2c1)Cc1ccccc1` the value was 115 to 117 °C; for `COC(=O)c1cc2cc(OC)ccc2n1C`, 200 °C. Regarding `CN(C)CCC1Cc2ccccc2C(C)(O)c2ccccc21` (stereo not given), the melting point is 162 °C. Then `COc1ccc(OC)c(C2OC(=O)c3c(OC)ccc(C)c32)c1` (stereo not given), with 121 to 123 °C; and `C#CC1(OCc2ccc(Cl)cc2F)CCN(C(C)=O)CC1`, with 70 to 74 °C. For `CS(=O)(=O)c1ccc(C(Cc2ccccc2F)C(=O)Nc2nc3ccccc3o2)cc1` (stereo not given) the value was 99 to 100 °C. On to `CCOc1cc(C(=O)CCCC2CCCCC2)c(OCC)cc1C`, for which the melting point is 49 to 50 °C. `CCn1c(=O)ccc2cnc(Nc3ccccc3)nc21`: the melting point lay in the range of 203 to 204 °C.

`COc1cc2c(cc1S(N)(=O)=O)CCN(C(C)=O)CC2` returned a melting point of 260 to 263 °C. For `O=c1[nH]c2cc(Cl)ccc2c(O)c1-c1ccc(OCc2ccccc2)cc1` the value was > 350 °C; for `Cc1cc(SC2=C(O)CC(CCc3ccccn3)(C(C)C)OC2=O)c(C(C)(C)C)cc1CO` (stereo not given), 100 to 110 °C. Then `CN(C)CCCN1CCC(O)(c2ccccc2)C(C(=O)c2ccccc2)C1` (stereo not given), with 114 to 116 °C. Then `CCOC(=O)c1ncoc1-c1ccc([N+](=O)[O-])cc1OC`, with 106 to 107 °C; and `Cc1nc2c(N)nc3ccccc3c2n1CCCCC(=O)N1CCOCC1`, with 218 to 219 °C; and `CNC1(c2ccccc2Cl)C(=O)N(S(=O)(=O)c2ccc([N+](=O)[O-])cc2)c2ccc(Cl)cc21` (stereo not given), with 220 to 221 °C. With `N#Cc1cc(C(=O)NCc2cccc([N+](=O)[O-])c2)c(OCC(=O)O)cc1F`, the melting point lay within 179 to 180 °C. Consider `O=C(OC1CCCCC1)c1ncn2c1[C@@H]1CCN1C(=O)c1c(Br)cccc1-2`, for which the melting point is 203 to 204 °C. As for `CCCC(O)C(C)C(=O)NCc1ccccc1` (stereo not given), the melting point lay in the range of 114 to 115 °C. Take `CCCCc1nc([N+](=O)[O-])c(CO)n1Cc1ccc(-c2ccccc2C(=O)O)cc1`: the melting point lay in the range of 204 to 206 °C. Then `Cc1sc2c(c1C(=O)CCCl)NC(=O)CCC2`, with 86 to 87 °C. For `CCOC(=O)CN1[C@H](C)CN(c2ccc(N)cc2C#N)C[C@@H]1C` the value was 45 °C.
